One assay relates to phospho-AKT at S473. The assay is described as follows: Cellular p-AKT1/2/3-S473 assay in KPL-4 cells. Particulars: Homo sapiens, KPL4; KPL-4 breast tumour cell line, compound treatment 2 hours; read-out: pAKT-S473 median IC50. The assay is classed as cell-based.
Assay [1] relates to MCF-7 breast tumour cell line. The assay is described as follows: Tumor cell proliferation assay (CellTiter-Glo), MCF-7. The assay is classed as cell-based. Particulars: Homo sapiens, MCF7, 72 h drug exposure, read-out: MCF-7 median IC50. Background: ATP-based viability assays read luminescence as a measure of living cells.
Experimental: (§1) Biological Assay 4.0: Tumor Cell Proliferation Assays
(§2) Compounds were tested in a cell-based assay that measures the capacity of the compounds to inhibit tumour cell proliferation following a 72 h drug exposure. Cell viability is determined using CellTiter-Glow® (CTG, Promega, cat#G7571/2/3). The CellTiter-Glo® Luminescent Cell Viability Assay is a homogeneous method to determine the number of viable cells in culture.
(§3) Detection is based on using the luciferase reaction to measure the amount of ATP from viable cells. The amount of ATP in cells correlates with cell viability. Within minutes after a loss of membrane integrity, cells lose the ability to synthesize ATP, and endogenous ATPases destroy any remaining ATP; thus the levels of ATP fall precipitously.
(§4) For each cell line assayed, cells were plated onto a separate plate for determination of fluorescence at t=0 hour and t=72 hour time points. Following overnight incubation at 37° C., chemiluminescence values for the t=0 samples were determined after adding 10 μl medium and 100 μl CTG solution according to manufacture protocol. Plates for the t=72 hour time points were treated with compounds diluted into growth medium at ten times final concentration added in 10 μL to the cell culture plate. Cells were then incubated for 72 hours at 37° C. Chemiluminescence values for the t=72 hour samples were determined. […] Experiments were controlled using a reference compound as standard.
The subject of assay [2] is KPL-4 breast cancer cell line. The assay is described as follows: Tumor cell proliferation assay (CellTiter-Glo), KPL-4. The assay is classed as cell-based. Conditions: Homo sapiens, KPL4, 72 h drug exposure, read-out: KLP-4 median IC50.
Experimental: as §1, §2, §3, §4
Another assay has as its system p-4E-BP1 at T70. The assay is described as follows: Cellular p-4E-BP1-T70 assay in KPL-4 cells. The assay is classed as cell-based. Conditions: Homo sapiens, KPL4; KPL-4 breast tumour cell line, compound treatment 2 hours; read-out: P4EBP1-T70 median IC50.
Assay [3] addresses His-tagged human recombinant kinase full-length Akt1 (Homo sapiens (Human), UniProt P31749). The experiment in a line: Akt1 kinase assay (Akt1 TR-FRET assay). The assay is classed as biochemical. Conditions: 10 μM ATP, 60 min at 22° C., read-out: Akt1 median IC50. Background: In TR-FRET formats the signal depends on donor and acceptor labels being close together.
The target of assay [4] is His-tagged human recombinant kinase full-length Akt2 (Homo sapiens (Human), UniProt P31751). The experiment in a line: Akt2 kinase assay (Akt2 TR-FRET assay). The assay is classed as biochemical. Particulars: 10 μM ATP, 60 min at 22° C., read-out: Akt2 median IC50.
His-tagged human recombinant kinase full-length Akt2, sequence (P31751 whole entry): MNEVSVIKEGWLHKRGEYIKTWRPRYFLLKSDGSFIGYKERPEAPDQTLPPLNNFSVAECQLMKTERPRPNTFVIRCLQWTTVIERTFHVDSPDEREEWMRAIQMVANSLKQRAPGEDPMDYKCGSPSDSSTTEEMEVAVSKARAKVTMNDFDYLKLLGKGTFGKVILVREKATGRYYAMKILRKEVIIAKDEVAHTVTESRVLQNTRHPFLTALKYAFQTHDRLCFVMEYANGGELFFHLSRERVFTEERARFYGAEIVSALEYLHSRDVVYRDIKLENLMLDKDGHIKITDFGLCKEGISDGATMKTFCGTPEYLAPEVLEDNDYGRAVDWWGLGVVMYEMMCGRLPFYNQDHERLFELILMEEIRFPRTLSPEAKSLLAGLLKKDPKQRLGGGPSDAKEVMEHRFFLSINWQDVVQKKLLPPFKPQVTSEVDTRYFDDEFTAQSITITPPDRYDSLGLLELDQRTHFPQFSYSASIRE

Molecules are shown by their SMILES. pIC50: −log10 of the molar value. Where a name gives a salt, the structure may show the parent alone.

His-tagged human recombinant kinase full-length Akt1, sequence (P31749 whole entry): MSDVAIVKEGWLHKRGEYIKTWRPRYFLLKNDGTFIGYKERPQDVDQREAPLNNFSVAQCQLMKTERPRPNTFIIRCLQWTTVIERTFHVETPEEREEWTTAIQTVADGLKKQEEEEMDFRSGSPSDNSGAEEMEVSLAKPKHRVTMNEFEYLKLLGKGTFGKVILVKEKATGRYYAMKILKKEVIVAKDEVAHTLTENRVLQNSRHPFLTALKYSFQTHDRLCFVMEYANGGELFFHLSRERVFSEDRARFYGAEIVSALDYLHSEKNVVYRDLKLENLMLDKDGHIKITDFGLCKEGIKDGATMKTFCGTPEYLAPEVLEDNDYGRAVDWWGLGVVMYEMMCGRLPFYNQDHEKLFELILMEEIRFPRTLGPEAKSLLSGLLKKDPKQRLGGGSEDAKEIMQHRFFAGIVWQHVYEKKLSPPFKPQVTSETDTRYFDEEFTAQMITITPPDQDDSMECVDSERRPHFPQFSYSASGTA
Experimental for p-4E-BP1 at T70: (§5) The molecular mechanism of action was investigated in a set of experiments to assess the inhibition of the PI3K-AKT-mTOR pathway in responsive cell lines such as KPL-4 breast tumour cell line (PIK3CA^H1047R, HER2^O/E and hormone independent). The phospho-substrates of PI3K-AKT-mTOR axis were used as the read-outs to reflect pathway inhibition. Cells were seeded at 60-80% confluency per well in 96-well cell culture plates. After overnight incubation at 37° C. 5% CO2, cells were treated with compounds and vehicle at 37° C. for 2 hours. […] All measurements where at least done in duplicates and confirmed by independent repetition.
Experimental for phospho-AKT at S473: as §5
Alternatively pAKT-S473 was measured using the “Akt Duplex” of the MULTI-SPOT® Assay System (Fa. Meso Scale Discovery, Cat#N41100B-1) following manufacturers instructions. Each assay used 20 μg of protein extract and measured total AKT and p-AKT content simultaneously in one well. All measurements where at least done in duplicates and confirmed by independent repetition. Values for P-AKT are expressed as percentage of P-AKT level compared to total-AKT content of the extracts.

The pIC50 is −log10 of the IC50, conventionally taken in molar units. `CC(=O)c1ccc2nc(-c3ccc(C4(N)CCC4)cc3)c(-c3ccccc3)n2n1` [Example 43, 1-{2-[4-(1-Aminocyclobutyl)phenyl]-3-phenylimidazo[1,2-b]pyridazin-6-yl}ethanone]: the pIC50 in the assay on phospho-AKT at S473 was 7.02; in assay [1] it was 5.17; in assay [2], 5.21; in the assay with p-4E-BP1 at T70, 5.80; in assay [3], 7.44.
For `CSc1ccc2nc(-c3ccc(C4(N)CCC4)cc3)c(-c3ccccc3)n2n1` [Example 36, 1-{4-[6-(Methylsulfanyl)-3-phenylimidazo[1,2-b]pyridazin-2-yl]phenyl}cyclobutanamine], in that order: 7.59, 5.77, 5.74, 5.80 and 7.77.
Regarding `CCc1cc(OC)c2nc(-c3ccc(C4(N)CCC4)cc3)c(-c3ccccc3)n2n1` [Example 13, 1-[4-(6-Ethyl-8-methoxy-3-phenylimidazo[1,2-b]pyridazin-2-yl)phenyl]cyclobutanamine], the pIC50 in assay [4] was 7.38; in assay [1] it was 5.96; in assay [2] it was 5.82; in the assay with p-4E-BP1 at T70 it was 6.18.
In the case of `Nc1ccnn2c(-c3ccccc3)c(-c3ccc(C4(N)CCC4)cc3)nc12` [Example 48, 2-[4-(1-Aminocyclobutyl)phenyl]-3-phenylimidazo[1,2-b]pyridazin-8-amine], the pIC50 in the assay on phospho-AKT at S473 was 7.38; in assay [4], 6.21; in assay [1] it was 5.89; in assay [2], 5.96; in the assay with p-4E-BP1 at T70, 7.54.
On to `CCCc1ccnn2c(-c3ccccc3)c(-c3ccc(C4(N)CCC4)cc3)nc12` [Example 47, 1-[4-(3-Phenyl-8-propylimidazo[1,2-b]pyridazin-2-yl)phenyl]cyclobutanamine], for which the pIC50 is 6.85 in the assay with phospho-AKT at S473; 5.96 in assay [1]; 5.77 in assay [2]; 7.02 with p-4E-BP1 at T70; 6.66 in assay [3].
For `COC(=O)c1cc(OC)c2nc(-c3ccc(C4(N)CCC4)cc3)c(-c3ccccc3)n2n1` [Example 12, Methyl 2-[4-(1-aminocyclobutyl)phenyl]-8-methoxy-3-phenylimidazo[1,2-b]pyridazine-6-carboxylate], in that order: 7.28, 5.74, 5.70, 6.59 and 7.68.
For the compound `NC1(c2ccc(-c3nc4c(-c5ccc(F)cc5)ccnn4c3-c3ccccc3)cc2)CCC1` [Example 44, 1-{4-[8-(4-Fluorophenyl)-3-phenylimidazo[1,2-b]pyridazin-2-yl]phenyl}cyclobutanamine], the pIC50 with phospho-AKT at S473 is 6.10; in assay [4], 6.51; in assay [2] it was 5.70; with p-4E-BP1 at T70 it was 6.42.
For the compound `NC1(c2ccc(-c3nc4c(-c5ncc[nH]5)cc(Cl)nn4c3-c3ccccc3)cc2)CCC1` [Example 24, 1-{4-[6-Chloro-8-(1H-imidazol-2-yl)-3-phenyl-imidazo[1,2-b]pyridazin-2-yl]phenyl} cyclobutanamine], the pIC50 in the assay with phospho-AKT at S473 is 6.70; in assay [1], 5.74; in assay [2] it was 5.77; with p-4E-BP1 at T70 it was 6.30; in assay [3] it was 7.46.
As for `COc1cc(-c2ccnn2C)c2nc(-c3ccc(C4(N)CCC4)cc3)c(-c3ccccc3)n2n1` [Example 74, 1-{4-[6-Methoxy-8-(1-methyl-1H-pyrazol-5-yl)-3-phenylimidazo[1,2-b]pyridazin-2-yl]phenyl}cyclobutanamine], the pIC50 in the assay with phospho-AKT at S473 was 6.35; in assay [1], 5.70; in assay [2] it was 5.68; in assay [3], 7.02.
`NC1(c2ccc(-c3nc4ccc(C(=O)NCCO)nn4c3-c3ccccc3)cc2)CCC1` [Example 70, 2-[4-(1-Aminocyclobutyl)phenyl]-N-(2-hydroxyethyl)-3-phenylimidazo[1,2-b]pyridazine-6-carboxamide]: the pIC50 in the assay with phospho-AKT at S473 is 8.24; in assay [4] it was 6.96; in assay [1] it was 6.03; in assay [2], 5.59; with p-4E-BP1 at T70, 5.62.
Consider `COCCOc1cc(C(N)=O)nn2c(-c3ccccc3)c(-c3ccc(C4(N)CCC4)cc3)nc12` [Example 28, 2-[4-(1-Aminocyclobutyl)phenyl]-8-(2-methoxy-ethoxy)-3-phenylimidazo[1,2-b]pyridazine-6-carboxamide], for which the pIC50 with phospho-AKT at S473 was 9.00; in assay [1], 5.74; in assay [2], 5.72; in the assay on p-4E-BP1 at T70, 8.21.
For `NC1(c2ccc(-c3nc4ccc(C(F)(F)F)nn4c3-c3ccccc3)cc2)CCC1` [Example 3, 1-{4-[3-Phenyl-6-(trifluoromethyl)imidazo[1,2-b]pyridazin-2-yl]phenyl}-cyclobutanamine], in that order: 6.44, 5.74, 5.77 and 5.35.
`NC1(c2ccc(-c3nc4c(C5CC5)cc(Cl)nn4c3-c3ccccc3)cc2)CCC1` [Example 46, 1-[4-(6-Chloro-8-cyclopropyl-3-phenylimidazo [1,2-b]pyridazin-2-yl)phenyl]cyclobutanamine]: the negative logarithm of the IC50 (pIC50) was 6.37 in the assay on phospho-AKT at S473; 7.07 in assay [4]; 5.82 in assay [1]; 5.72 in assay [2]; 6.52 in the assay with p-4E-BP1 at T70.
`COc1cc(-c2cn[nH]c2)c2nc(-c3ccc(C4(N)CCC4)cc3)c(-c3ccccc3)n2n1` [Example 15, 1-{4-[6-Methoxy-3-phenyl-8-(1H-pyrazol-4-yl)imidazo[1,2-b]pyridazin-2-yl]phenyl} cyclobutanamine HCl salt]: the pIC50 is 6.23 in the assay with phospho-AKT at S473; 5.74 in assay [1]; 5.74 in assay [2]; 5.77 in the assay with p-4E-BP1 at T70; 8.36 in assay [3].
As for `CCNC(=O)c1ccc2nc(-c3ccc(C4(N)CCC4)cc3)c(-c3ccccc3)n2n1` [Example 66, 2-[4-(1-Aminocyclobutyl)phenyl]-N-ethyl-3-phenylimidazo[1,2-b]pyridazine-6-carboxamide], the figures for the pIC50 (in the assay on phospho-AKT at S473; in assay [1]; in assay [2]) were 7.77, 6.01 and 5.60, respectively.
On to `NC(=O)c1cc(-c2cc[nH]n2)c2nc(-c3ccc(C4(N)CCC4)cc3)c(-c3ccccc3)n2n1` [Example 60, 2-[4-(1-Aminocyclobutyl)phenyl]-3-phenyl-8-(1H-pyrazol-3-yl)imidazo[1,2-b]pyridazine-6-carboxamide], for which the pIC50 with phospho-AKT at S473 is 9.00; in assay [1], 7.14; in assay [2], 5.82; in the assay with p-4E-BP1 at T70 it was 5.09; in assay [3], 8.14.
Consider `CCOc1nn2c(-c3ccccc3)c(-c3ccc(C4(N)CCC4)cc3)nc2c(C)c1C` [Example 55, 1-[4-(6-Ethoxy-7,8-dimethyl-3-phenylimidazo[1,2-b]pyridazin-2-yl)phenyl]-cyclobutanamine], for which the pIC50 was 6.17 in the assay with phospho-AKT at S473, 5.72 in assay [1], 5.70 in assay [2] and 5.74 with p-4E-BP1 at T70.
For `NC1(c2ccc(-c3nc4ccc(NC(=O)C(F)(F)F)nn4c3-c3ccccc3)cc2)CCC1` [Example 40, N-{2-[4-(1-Aminocyclobutyl)phenyl]-3-phenylimidazo[1,2-b]pyridazin-6-yl}-2,2,2-trifluoroacetamide], in that order: 5.70, 5.08, less than 5.00 and 5.21.
For the compound `CS(=O)(=O)c1ccc2nc(-c3ccc(C4(N)CCC4)cc3)c(-c3ccccc3)n2n1` [Example 38], the pIC50 with phospho-AKT at S473 was 7.70; in assay [1] it was 6.29; in assay [2], 6.13; with p-4E-BP1 at T70, 6.28; in assay [3] it was 6.43.
With `NC(=O)c1ccnn2c(-c3ccccc3)c(-c3ccc(C4(N)CCC4)cc3)nc12` [Example 59], the pIC50 in the assay on phospho-AKT at S473 was 7.96; in the assay on p-4E-BP1 at T70, 7.00.
For the compound `NC1(c2ccc(-c3nc4ccc(-c5ccc(F)cc5)nn4c3-c3ccccc3)cc2)CCC1` [Example 33, 1-{4-[6-(4-Fluorophenyl)-3-phenylimidazo[1,2-b]pyridazin-2-yl]phenyl}cyclobutanamine], the results for the pIC50 (in the assay with phospho-AKT at S473; in assay [3]) were 5.54 and 6.16, respectively.
With `NC1(c2ccc(-c3nc4c(O)ccnn4c3-c3ccccc3)cc2)CCC1` [Example 32, 2-[4-(1-Aminocyclobutyl)phenyl]-3-phenylimidazo[1,2-b]pyridazin-8-ol], the values for the pIC50 in the assay with phospho-AKT at S473 and with p-4E-BP1 at T70 were 6.80 and 5.66, respectively.
Regarding `CCOc1cc(C(=O)NC)nn2c(-c3ccccc3)c(-c3ccc(C4(N)CCC4)cc3)nc12` [Example 22, 2-[4-(1-Aminocyclobutyl)phenyl]-8-ethoxy-N-methyl-3-phenylimidazo[1,2-b]pyridazine-6-carboxamide], the pIC50 was 9.52 in the assay with phospho-AKT at S473; 6.62 in assay [1]; 6.72 in assay [2]; 7.64 in the assay with p-4E-BP1 at T70; 8.10 in assay [3].
For `CN(C)C(=O)c1ccc2nc(-c3ccc(C4(N)CCC4)cc3)c(-c3ccccc3)n2n1` [Example 69, 2-[4-(1-Aminocyclobutyl)phenyl]-N,N-dimethyl-3-phenylimidazo[1,2-b]pyridazine-6-carboxamide], in that order: 6.60, 5.82, 5.00, 5.36 and 6.51.

(Values after patent US9604989B2, “Imidazopyridazines as Akt kinase inhibitors” (Bayer Intellectual Property GmbH, priority 2011, dated 2017).)
